Several values for one entry are separate records, joined by “and”; a condition that tells them apart may be missing. Identical values can stand only once. Like-named read-outs stand apart in the source and are kept apart here.
How the values were obtained:
[1] = test system: endogenous taurine transporter in COS cells; experiment: [3H]taurine uptake by non-transfected COS-7 cells (control); format: cell-based; details: 50 nM [3H]taurine, 10 minutes, 37° C.
[2] = target: T1, taurine transporter (rB16a) (Rattus norvegicus, UniProt P31643); experiment: [3H]taurine uptake by COS-7 cells transfected with rB16a; details: for inhibition at 10 µM: COS-7, read-out: % Inhibition of [3H]taurine uptake, rB16a, inhibitor 10 μM; for inhibition at 10 µM / inhibition at 100 µM / inhibition at 1000 µM / % Inhibition of [3H]taurine uptake, rB16a: 50 nM [3H]taurine, 10 minutes, 37° C.; for inhibition at 100 µM: COS-7, read-out: % Inhibition of [3H]taurine uptake, rB16a, inhibitor 100 μM; for inhibition at 1000 µM: COS-7, read-out: % Inhibition of [3H]taurine uptake, rB16a, inhibitor 1 mM
T1 sequence (P31643 1-621): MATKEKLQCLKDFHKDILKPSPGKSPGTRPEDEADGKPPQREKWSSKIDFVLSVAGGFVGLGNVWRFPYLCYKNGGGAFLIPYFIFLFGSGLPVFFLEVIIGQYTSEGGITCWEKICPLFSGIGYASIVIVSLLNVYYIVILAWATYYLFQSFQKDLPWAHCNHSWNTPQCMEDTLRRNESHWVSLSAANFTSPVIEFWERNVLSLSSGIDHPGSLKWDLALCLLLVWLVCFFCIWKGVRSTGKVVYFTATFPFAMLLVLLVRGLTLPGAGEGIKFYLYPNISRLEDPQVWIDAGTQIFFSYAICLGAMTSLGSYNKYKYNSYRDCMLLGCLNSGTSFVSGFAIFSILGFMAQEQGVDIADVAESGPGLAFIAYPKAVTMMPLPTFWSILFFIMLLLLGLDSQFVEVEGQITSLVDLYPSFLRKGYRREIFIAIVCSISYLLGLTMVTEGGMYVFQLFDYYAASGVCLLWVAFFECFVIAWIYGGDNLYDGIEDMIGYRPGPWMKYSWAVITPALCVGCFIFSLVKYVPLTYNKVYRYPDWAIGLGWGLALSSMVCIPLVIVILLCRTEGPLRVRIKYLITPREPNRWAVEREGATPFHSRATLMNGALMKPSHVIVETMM
Experimental: Transient transfections of COS cells with the plasmid pEVJB-rB16a were carried out using DEAE-dextran with DMSO according to the method of Lopata et al. (58) with minor modifications. COS cells were grown (37° C., 5%CO2) in high glucose Dulbecco's modified Eagle medium supplemented with 10% bovine calf serum, 100 U/ml penicillin G, and 100 μg/ml streptomycin sulfate. Cells were routinely used two days after transfection for transport studies.
Plates were incubated at 37° C. for 10 minutes unless indicated otherwise, then washed rapidly 3× with ice cold HBS. Cells were solubilized with 0.05% sodium deoxycholate/0.1N NaOH), an aliquot was neutralized with 1N HCl, and radioactivity was determined by scintillation counting. Protein was quantified in an aliquot of the solubilized cells using a BIO-RAD protein assay kit, according to the manufacturer's directions.

rat GAT-2 = target: T2, rat GAT-2 (Rattus norvegicus, UniProt P31646)
T2 sequence (P31646 1-602): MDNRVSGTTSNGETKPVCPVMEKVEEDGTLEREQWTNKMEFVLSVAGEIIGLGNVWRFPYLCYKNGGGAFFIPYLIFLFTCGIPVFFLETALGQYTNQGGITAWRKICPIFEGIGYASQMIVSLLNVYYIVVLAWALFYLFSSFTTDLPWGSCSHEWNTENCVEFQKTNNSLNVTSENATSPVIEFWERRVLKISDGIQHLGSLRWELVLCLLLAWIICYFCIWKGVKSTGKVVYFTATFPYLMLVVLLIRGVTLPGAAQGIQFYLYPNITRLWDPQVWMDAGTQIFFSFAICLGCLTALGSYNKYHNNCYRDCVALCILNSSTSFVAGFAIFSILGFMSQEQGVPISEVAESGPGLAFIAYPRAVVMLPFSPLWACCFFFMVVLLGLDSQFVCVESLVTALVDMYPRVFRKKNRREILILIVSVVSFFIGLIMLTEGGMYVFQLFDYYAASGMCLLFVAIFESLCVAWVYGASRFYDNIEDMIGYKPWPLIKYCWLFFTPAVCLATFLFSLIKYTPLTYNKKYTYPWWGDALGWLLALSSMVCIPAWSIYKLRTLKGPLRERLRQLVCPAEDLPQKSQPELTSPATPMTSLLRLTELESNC
Experimental: (§1) Cells were grown under standard conditions (37° C., 5% CO2) in Dulbecco's modified Eagles's medium (GIBCO, Grand Island, N.Y.).
(§2) Cells grown in 24-well plates were washed 3× with HEPES-buffered saline (HBS, in mM: NaCl, 150; HEPES, 20; CaCl2, 1; glucose, 10; KCl, 5; MgCl2, 1; pH 7.4) and allowed to equilibrate on a 37° C. slide warmer. After 10 minutes the medium was removed and unlabeled drugs in HBS were added (450 μl/well). […] Plates were incubated at 37° C. for 10 minutes, then washed rapidly 3× with ice-cold HBS, using a 24-position plate washer (Brandel, Gaithersburg, Mass.; model PW-12). Cells were solubilized with 0.05% sodium deoxycholate/0.1N NaOH (0.25 ml/well), an aliquot neutralized with 1N HCl, and radioactivity was determined by scintillation counting. Protein was quantified in an aliquot of the solubilized cells using a BIO-RAD protein assay kit, according to the manufacturer's directions.
(§3) Lipophilic inhibitors were dissolved in DMSO.
(§4) Data Analysis: Competition curves were conducted in duplicate, using 10 concentrations of unlabeled drug.

human GAT-3 = target: T3, human GAT-3 (Homo sapiens, UniProt P48066); details: 50 nM [3H]GABA
T3 sequence (P48066 1-632): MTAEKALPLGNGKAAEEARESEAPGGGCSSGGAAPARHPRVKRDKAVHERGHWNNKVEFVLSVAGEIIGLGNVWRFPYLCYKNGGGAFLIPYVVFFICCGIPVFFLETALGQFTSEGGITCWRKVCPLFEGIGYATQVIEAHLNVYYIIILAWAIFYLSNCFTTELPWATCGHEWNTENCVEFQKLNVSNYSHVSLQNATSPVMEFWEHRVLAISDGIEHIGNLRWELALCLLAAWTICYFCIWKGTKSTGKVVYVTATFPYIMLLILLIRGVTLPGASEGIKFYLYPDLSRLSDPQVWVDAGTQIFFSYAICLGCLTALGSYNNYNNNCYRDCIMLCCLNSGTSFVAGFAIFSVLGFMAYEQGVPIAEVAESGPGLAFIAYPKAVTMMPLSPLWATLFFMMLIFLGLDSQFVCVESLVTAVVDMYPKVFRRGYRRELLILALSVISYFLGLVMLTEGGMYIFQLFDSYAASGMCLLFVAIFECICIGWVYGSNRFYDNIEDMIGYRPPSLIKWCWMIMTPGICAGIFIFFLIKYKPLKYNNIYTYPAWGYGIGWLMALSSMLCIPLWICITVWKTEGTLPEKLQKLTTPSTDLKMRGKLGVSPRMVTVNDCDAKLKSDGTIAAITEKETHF
Experimental: as §1, §2, §3, §4

GAT-1 = target: T4, GAT-1 (Rattus norvegicus, UniProt P23978); experiment: [3H]GABA uptake by COS-7 cells transfected with GAT-1 (rB46a); format: cell-based
T4 construct: expressed in transfected cells; host or cells: COS-7 cells, transient (DEAE-dextran)

[3] = IC50 for inhibition of [3H]GABA uptake, human GAT-3, stable cell line
[4] = COS-7, read-out: % Inhibition of [3H]GABA uptake, GAT-1

% Inhibition of [3H]taurine uptake, rB16a ([2]; inhibitor 1 mM)	Molecule	% Inhibition of [3H]taurine uptake, control ([1]; inhibitor 10 μM)	% Inhibition of [3H]taurine uptake, control ([1]; inhibitor 100 μM)	% Inhibition of [3H]taurine uptake, control ([1]; inhibitor 1 mM)	inhibition at 10 µM [2] [%]	inhibition at 100 µM [2] [%]	inhibition at 1000 µM [2] [%]	% Inhibition of [3H]taurine uptake, rB16a ([2]; inhibitor 10 μM)	% Inhibition of [3H]taurine uptake, rB16a ([2]; inhibitor 100 μM)	inhibition at 100 µM (GAT-1; [4]) [%]	also measured
–	NCCS(=O)O [hypotaurine]	41 ± 3 (7) %	91 ± 1 (4) %	99 ± 1 (4) %	30 to 40	~90	~100	26 ± 7 (7) %	84 ± 3 (4) %	–	–
92%	N=C(N)NCCS(=O)(=O)O [GES, guanidinoethanesulfonic acid]	6 ± 3 (4) %	47 ± 3 (5) %	89 ± 1 (5) %	–	–	–	11%	45%	–	–
–	O=C(O)C1=CCCN(CCON=C(c2ccccc2)c2ccccc2)C1 [NNC-711]	–	–	–	–	–	–	–	–	–	IC50 (rat GAT-2; read-out: IC50 for inhibition of [3H]GABA uptake, rat GAT-2, stable cell line, 50 nM [3H]GABA): 171 ± 53 µM; IC50 (human GAT-3; read-out: IC50 for inhibition of [3H]GABA uptake, human GAT-3, stable cell line): 1700 ± 252 µM
–	hydroxynipecotic acid [OH-nipecotic]	–	–	–	–	–	–	–	–	–	% Inhibition of [3H]GABA uptake, GAT-1 (GAT-1; inhibitor 10 μM, 50 nM [3H]GABA, 10 minutes, 37° C.): 34 ± 5 (3) %
44 ± 6 (8) %	NCCCC(=O)O [GABA, gamma-aminobutyric acid]	–	–	–	9 ± 6	~10	~40	–	–	–	affinity of the taurine transporter for GABA ([2]; from Table 15): ~1 mM; IC50 (rat GAT-2): ~5 µM; IC50 (human GAT-3; [3]): ~5 µM and ~7 µM
–	O=C(O)C1=CCCNC1 [guvacine]	–	–	–	–	–	–	–	–	–	inhibition at 10 µM (GAT-1; [4]): 41 ± 3%
–	N[C@@H]1CCC[C@H](C(=O)O)C1 (relative stereo) [ACHC, cis-3-aminocyclohexanecarboxylic acid]	–	–	–	–	–	–	–	–	49 ± 10	–
–	NCCC(=O)O [β-alanine]	9 ± 2 (6) %	63 ± 3 (6) %	97 ± 1 (4) %	15	51	96	–	–	11 ± 1	IC50 (rat GAT-2): 19 ± 7 µM; IC50 (human GAT-3; [3]): ~58 µM and 58 µM
–	NCC[C@H](N)C(=O)O [L-DABA, L-(2,4)diaminobutyric acid]	–	–	–	–	–	–	–	–	49 ± 8	–

Molecule	% Inhibition of [3H]taurine uptake, rB16a ([2]; inhibitor 1 mM)	% Inhibition of [3H]taurine uptake, control ([1]; inhibitor 10 μM)	% Inhibition of [3H]taurine uptake, control ([1]; inhibitor 100 μM)	% Inhibition of [3H]taurine uptake, control ([1]; inhibitor 1 mM)	inhibition at 10 µM [2] [%]	inhibition at 100 µM [2] [%]	inhibition at 1000 µM [2] [%]	% Inhibition of [3H]taurine uptake, rB16a ([2]; inhibitor 10 μM)	% Inhibition of [3H]taurine uptake, rB16a ([2]; inhibitor 100 μM)	inhibition at 100 µM (GAT-1; [4]) [%]	also measured
NCCS(=O)(=O)O [taurine, 2-aminoethanesulfonic acid]	100° %	38 ± 5 (7) %	89 ± 2 (4) %	100° %	30 to 40	~90	~100	29 ± 8 (5) %	83 ± 2 (5) %	–	VMAX of taurine transport, COS/rB16a ([2]; various concentrations of [3H]taurine, 30 seconds): 0.96±0.27 nmoles/mg protein
